This is an account of results in US11098061B2 (Celgene CAR LLC, priority 2013, dated 2021).

The target of experiment [1] is T1, MK2 (Homo sapiens (Human), UniProt P49137). Briefly: MK2 cellular assay (Hsp27 phosphorylation in Thp-1 cells). The format is cell-based. To be noted: differentiated Thp-1 cells, compound 1 hour, 50 ng/ml LPS 15 minutes, phosphorylation of Hsp27; read-out: MK2EC50. The method in brief: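 PMA-differentiated (10 ng/ml, 2 days) human Thp-1 monocytic cells given compound for 1 h, washed, then stimulated with 50 ng/ml LPS for 15 min. Hsp27 phosphorylation measured by western blot of lysates (20 μg protein); EC50 from dose-response inhibition.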

Experiment [2] concerns the target T1, MK2. The experiment can be described thus: MK2 Thp-1 washout assay. Type of experiment: cell-based. To be noted: up to 6 hours after a 100 nM exposure (1 hour) and subsequent washout, Thp-1 cells. As to the method:
Test compounds were assayed in Thp-1 human acute monocytic leukemia cells. Thp-1 were grown in suspension in T225 flasks. Two days prior to assay, Thp-1 cells were spun down, counted and plated at 1×10^6 cells per well of a 12 well plate in complete media containing 10 ng/ml PMA (phorbol myristate acetate) to differentiate the cells. […] Cells were thoroughly washed to remove the unbound test compound and placed back in the 37° C. tissue culture incubator for the washout period (0 h, 2 h, 6 h, or 16 h). After the washout, complete media containing 50 ng/ml LPS (lipopolysaccharide) was added for 15 minute stimulation, the cells were washed once with PBS, and protein lysates were prepared on ice with BioRad Bioplex lysis buffer. 20 μg total protein from each lysate was loaded on the gel and analyzed by SDS-PAGE. Western blots were probed for phosphorylation of the MK2 substrate Hsp27.

Experiment [3] has as its target T1, MK2. Briefly: MK2 target occupancy assay in Thp-1 cells with Covalent probe 2. Type of experiment: cell-based. To be noted: 1 μM test compound, 1 hour at 37° C. The method, then:
This experiment measured occupancy of the MK2 target by compounds according to the invention. Thp-1 cells (human acute monocytic leukemia) were grown in suspension in T225 flasks. Two days prior to assay, Thp-1 cells were spun down, counted and plated at 1×10^6 cells per well of a 12 well plate in compete media containing 10 ng/ml PMA (phorbol myristate acetate) to differentiate the cells. On day of assay, cells were washed with complete media, and a -test compound was added to cells at a concentration of 1 μM in complete media and incubated for 1 hour at 37° C. Cells were washed 1× with PBS and lysed on ice with BioRad Bioplex lysis buffer. The lysates were incubated with 1 μM biotinylated MK2 Covalent probe 2 at room temperature for 1 hour. 50 μg of total protein from lysates was loaded on gel and blots were probed for total MK2 with SC-100393 antibody and for probe with streptavidin-800. The amount of covalent probe signal divided by the amount of MK2 signal for samples with no test compound treatment represents the maximum probe signal (MPS). In samples treated with test compound prior to covalent probe, the ratio of probe signal to MK2 signal (the test probe signal, TPS) will be reduced by the degree of target occupancy by the test compound which blocks covalent probe binding. […] This ratio is then expressed as a percent occupancy.

Experiment [4] addresses p38a activated, mitogen-activated protein kinase-activated protein kinase 2 (MAPKAP-K2 or MK-2) enzyme (Homo sapiens (Human), UniProt P49137). The experiment can be described thus: MK2 Omnia continuous-read kinase assay for compound potency. Type of experiment: biochemical. To be noted: [MK-2]=0.4 nM, [ATP]=1.0 mM, [ST3-Sox]=10 μM. The essentials:
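Continuous Omnia fluorescence read (λex360/λem485) every 71 s after starting with 0.4 nM MK-2, with 1.0 mM ATP (appKM 8-10 μM) and 10 μM ST3-Sox substrate.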

Experiment [5] concerns the target T1, MK2. Briefly: MK2 modification assessment by whole protein mass spectrometry. The note with it: intact MK2, 60 min, 10-fold excess of compound to protein. The format is binding. The essentials: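 MK2 treated with compound is analysed intact by MALDI-TOF after C4 cleanup in sinapinic acid matrix. Percent modification is the centroid mass shift against control MK2 divided by compound mass.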

The test system of experiment [6] is TNFα release. The experiment can be described thus: IV mouse PD experiment (TNFα release after LPS). The format is in vivo. To be noted: CD-1 male mice, less than 10 mg/kg IV, 1 hour prior to LPS. As to the method: CD-1 male mice, approximately 5 weeks old were acquired from Charles River Laboratories. Animals were housed in ventilated cages with a 12/12 light cycle and provided rodent chow and water ad libitum. Mice were acclimated at least 1 week prior to study initiation (approximately 6 weeks old). Five (5) mice per group were predosed with one of the following compounds: II-14, III-32, III-8, III-4, II-27 and III-40 (intravenously by lateral tail vein), 1 hour prior to LPS administration. LPS (E.Coli 055:B5 from Sigma, Cat #L2880) was diluted in 0.9% sterile saline (Webster Veterinary Supply, Cat #07-883-6734) to a final concentration of 30 μg/mL. Animals were administered 15 μg in 0.5 mL/mouse (approximately 0.5 mg/kg LPS) intraperitoneally. One hour post LPS administration, the mice were sacrificed via CO2 and whole blood was collected by cardiac puncture. Blood was placed in EDTA K2 tubes (Braintree Scientific, Cat #MT-1395), inverted 3 times and placed on wet ice until centrifugation at 4° C. Plasma was collected and stored on dry ice until stored at −80° C. until processing. TNFα levels were quantified using the “Mouse TNF-alpha Ultra-Sensitive Kit” from mesoscale.com (catalog number K152BHC-2) in conjunction with an MSD plate reader.

In experiment [7] the test system is TNFα release. The experiment can be described thus: PO mouse PD experiment (TNFα release after LPS). The note with it: CD-1 male mice, 30 mg/kg PO, 1 hour prior to LPS, read-out: % Inhibition of TNFa. The format is in vivo. As to the method: CD-1 male mice, approximately 5 weeks old were acquired from Charles River Laboratories. Animals were housed in ventilated cages with a 12/12 light cycle and provided rodent chow and water ad libitum. Mice were acclimated at least 1 week prior to study initiation (approximately 6 weeks old). Five (5) mice per group were predosed at 30 mg/kg PO with one of the following compounds: III-8, III-35, II-27, III-47, III-56, V-39, II-27, III-37, II-e-1, II-e-3, III-40, and V-58 (by oral gavage as a suspension in 0.5% methyl cellulose/0.25% Tween 80 in deionized water), 1 hour prior to LPS administration. LPS (E.Coli 055:B5 from Sigma, Cat #L2880) was diluted in 0.9% sterile saline (Webster Veterinary Supply, Cat #07-883-6734) to a final concentration of 30 μg/mL. Animals were administered 15 μg in 0.5 mL/mouse (approximately 0.5 mg/kg LPS) intraperitoneally. One hour post LPS administration, the mice were sacrificed via CO2 and whole blood was collected by cardiac puncture. Blood was placed in EDTA K2 tubes (Braintree Scientific, Cat #MT-1395), inverted 3 times and placed on wet ice until centrifugation at 4° C. Plasma was collected and stored on dry ice until stored at −80° C. until processing. TNFα levels were quantified using the “Mouse TNF-alpha Ultra-Sensitive Kit” from mesoscale.com (catalog number K152BHC-2) in conjunction with an MSD plate reader.

For experiment [8], the system named is TNFα release. Briefly: PO mouse PD experiment (TNFα release after LPS). The format is in vivo. To be noted: CD-1 male mice, 100 mg/kg PO, 1 hour prior to LPS, read-out: % Inhibition of TNFa.

Molecules are shown by their SMILES. Where only a bound is given, the exact number is not on record here.

Chain of p38a activated, mitogen-activated protein kinase-activated protein kinase 2 (MAPKAP-K2 or MK-2) enzyme (P49137 whole entry): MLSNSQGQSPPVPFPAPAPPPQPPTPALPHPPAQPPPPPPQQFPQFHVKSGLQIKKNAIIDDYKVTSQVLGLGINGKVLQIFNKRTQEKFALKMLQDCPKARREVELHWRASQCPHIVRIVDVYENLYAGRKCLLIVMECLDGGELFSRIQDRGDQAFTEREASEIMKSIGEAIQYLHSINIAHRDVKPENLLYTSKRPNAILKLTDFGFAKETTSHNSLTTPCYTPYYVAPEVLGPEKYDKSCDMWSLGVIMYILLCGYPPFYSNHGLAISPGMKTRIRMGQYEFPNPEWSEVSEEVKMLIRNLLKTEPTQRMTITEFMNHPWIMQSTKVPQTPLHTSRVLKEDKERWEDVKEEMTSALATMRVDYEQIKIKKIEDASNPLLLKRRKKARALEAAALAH
T1 sequence (P49137 whole entry): as above

By IC50 is commonly meant the concentration that gives 50% inhibition. Regarding `C=CC(=O)Nc1cc(-c2cc3c(cn2)CCc2c-3[nH]c3c2C(=O)NC2(CC2)C3)ccc1OCCOC` [II-11, N-(2-(2-methoxyethoxy)-5-(7′-oxo-5′,6′,7′,8′8′,1′,11′-hexahydrospiro[cyclopropane-1,9′-pyrido[3′,4′:4,5]pyrrolo[2,3-f]isoquinolin]-2′-yl)phenyl)acrylamide], at MK2 [1], the EC50 was below 100 nM. Further, at MK2 [2], the “inhibition of p-hsp27 (phosphorylated hsp27) after washout” value is above 95%. This compound also came in with a receptor occupancy at 1 µM at MK2 [3] of 95%. Further, the IC50 in experiment [4] was below 100 nM. Also, at MK2 [5], the “MK2 Mass Mod” value was “E (mass modification of ≥70%)”.

In the case of `C=CC(=O)Nc1cc(-c2cc3c(cn2)CCc2c-3[nH]c3c2C(=O)NCC3)cnc1OCCOC` [II-14, N-(2-(2-methoxyethoxy)-5-(7-oxo-6,7,8,9,10,11-hexahydro-5H-pyrido[3′,4′:4,5]pyrrolo[2,3-f]isoquinolin-2-yl)pyridin-3-yl)acrylamide], on MK2 [1], the EC50 was below 100 nM. For the same compound, the “reduction in TNFα release compared to untreated control” value (“reduction in TNFα release” for short) in the experiment with TNFα release [6] is “greater than 90%”. Besides, the half-inhibitory concentration (IC50) in experiment [4] is below 100 nM. For the same compound, at MK2 [5], the “MK2 Mass Mod” value is “E (mass modification of ≥70%)”.

Turning to `C=CC(=O)Nc1cc(-c2cc3c(cn2)CCc2c-3[nH]c3c2C(=O)NC2(CC2)C3)ccc1N1CCN(C)CC1` [II-27, N-(2-(4-methylpiperazin-1-yl)-5-(7′-oxo-5′,6′,7′,8′,10′,11′-hexahydrospiro[cyclopropane-1,9′-pyrido[3′,4′:4,5]pyrrolo[2,3-f]isoquinolin]-2′-yl)phenyl)acrylamide], the EC50 at MK2 [1] was below 100 nM. Besides, the “reduction in TNFα release” value in the experiment on TNFα release [6] was “greater than 90%”. Further, in the experiment on TNFα release [7], the inhibition in vivo at 30 mg/kg was at most 20%. For the same compound, the 50% inhibitory concentration (IC50) in experiment [4] was below 100 nM. Also, the “MK2 Mass Mod” value at MK2 [5] was “E (mass modification of ≥70%)”.

For the compound `C=CC(=O)Nc1cc(NC(=O)c2ccc3sc4c(c3c2)NC[C@@H](C)NC4=O)ccc1N1CCN(C)CC1` [III-4, (R)—N-(3-acrylamido-4-(4-methylpiperazin-1-yl)phenyl)-3-methyl-5-oxo-2,3,4,5-tetrahydro-1H-benzo[4,5]thieno[3,2-e][1,4]diazepine-9-carboxamide], the EC50 on MK2 [1] is below 100 nM. The “reduction in TNFα release” value with TNFα release [6] was “greater than 90%”. Moreover, the IC50 in experiment [4] is below 100 nM. In addition, the “MK2 Mass Mod” value on MK2 [5] is “E (mass modification of ≥70%)”.

For `C=CC(=O)Nc1cc(-c2ccc3c(ccc4sc5c(c43)NC[C@@H](C)NC5=O)n2)ccc1OCCOC` [III-8, (R)—N-(2-(2-methoxyethoxy)-5-(10-methyl-8-oxo-9,10,11,12-tetrahydro-8H-[1,4]diazepino[5′,6′:4,5]thieno[3,2-f]quinolin-3-yl)phenyl)acrylamide], the inhibition in vivo at 100 mg/kg with TNFα release [8] fell in the range of 21 to 80%. Also, on MK2 [1], the EC50 is below 100 nM. Further, in the experiment on TNFα release [6], the “reduction in TNFα release” value was “greater than 90%”. In addition, the receptor occupancy at 1 µM on MK2 [3] turned out to be 92%. Besides, the half-inhibitory concentration (IC50) in experiment [4] was 101 to 500 nM. Further, on MK2 [5], the “MK2 Mass Mod” value is reported as “E (mass modification of ≥70%)”.

Consider `C=CC(=O)N1CC(C)(C)Oc2ccc(NC(=O)c3ccc4sc5c(c4c3)NC[C@@H](C)NC5=O)cc21` [III-32, (R)—N-(4-acryloyl-2,2-dimethyl-3,4-dihydro-2H-benzo[b][1,4]oxazin-6-yl)-3-methyl-5-oxo-2,3,4,5-tetrahydro-1H-benzo[4,5]thieno[3,2-e][1,4]diazepine-9-carboxamide], for which the EC50 at MK2 [1] was below 100 nM. The “reduction in TNFα release” value in the experiment with TNFα release [6] is recorded as “greater than 90%”. In experiment [4], the IC50 is below 100 nM. In addition, the “MK2 Mass Mod” value on MK2 [5] is “E (mass modification of ≥70%)”.

Take `C=CC(=O)Nc1cc(-c2ccc3c(ccc4sc5c(c43)NC[C@@H](C)NC5=O)n2)ccc1OCCN(C)C` [III-40, (R)—N-(2-(2-(dimethylamino)ethoxy)-5-(10-methyl-8-oxo-9,10,11,12-tetrahydro-8H-[1,4]diazepino[5′,6′:4,5]thieno[3,2-f]quinolin-3-yl)phenyl)acrylamide]: the EC50 at MK2 [1] is below 100 nM. The “reduction in TNFα release” value with TNFα release [6] is listed as “greater than 90%”. Moreover, the inhibition in vivo at 30 mg/kg in the experiment with TNFα release [7] is at most 20%. For the same compound, the IC50 in experiment [4] is below 100 nM.
